“Also recorded” adds a separate entry of the source.
Columns and labels:
human κ opioid receptor = human κ opioid receptor (Homo sapiens, UniProt P41145); assay: [35S]GTPγS binding, stimulation and inhibition of agonist-stimulated binding; type: biochemical; conditions: for Functional description: Kappa Opioid Receptor; for Emax: read-out: Emax (% maximal stimulation)
human μ opioid receptor = human μ opioid receptor (Homo sapiens, UniProt P35372); assay: as above; type: biochemical; conditions: for Functional description / Imax (% maximal inhibition): Mu Opioid Receptor; for Imax (% maximal inhibition): inhibition of binding stimulated by 200 nM DAMGO; for Emax: read-out: Emax (% maximal stimulation)
Sequence of human μ opioid receptor (P35372 whole entry): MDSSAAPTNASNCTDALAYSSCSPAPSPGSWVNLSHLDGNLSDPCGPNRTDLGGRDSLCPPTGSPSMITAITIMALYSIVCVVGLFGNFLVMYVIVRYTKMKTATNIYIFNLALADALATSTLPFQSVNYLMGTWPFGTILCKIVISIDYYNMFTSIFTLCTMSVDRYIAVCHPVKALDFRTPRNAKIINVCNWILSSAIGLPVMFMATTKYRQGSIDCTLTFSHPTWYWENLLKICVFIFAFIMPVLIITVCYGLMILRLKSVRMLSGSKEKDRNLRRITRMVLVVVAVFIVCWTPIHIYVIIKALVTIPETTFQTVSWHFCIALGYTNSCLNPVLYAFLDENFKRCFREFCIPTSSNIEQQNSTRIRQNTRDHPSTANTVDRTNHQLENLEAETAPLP

Sequence of human κ opioid receptor (P41145 whole entry): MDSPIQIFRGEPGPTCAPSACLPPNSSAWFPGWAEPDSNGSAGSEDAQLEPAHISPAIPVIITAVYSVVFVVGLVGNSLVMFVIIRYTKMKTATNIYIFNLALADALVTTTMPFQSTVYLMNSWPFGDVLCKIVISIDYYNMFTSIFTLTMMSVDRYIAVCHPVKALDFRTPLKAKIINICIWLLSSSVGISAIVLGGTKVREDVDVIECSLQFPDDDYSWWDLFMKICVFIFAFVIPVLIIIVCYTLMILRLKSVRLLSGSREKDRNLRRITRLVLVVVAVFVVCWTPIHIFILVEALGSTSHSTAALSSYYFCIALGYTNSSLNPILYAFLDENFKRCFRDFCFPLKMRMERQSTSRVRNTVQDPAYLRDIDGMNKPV

For `CC1C2Cc3ccc(C(=O)NCCc4ccc(-c5ccccc5)cc4)cc3C1(C)CCN2CC1CC1` (racemic) [Compound 1, N-(2-[1,1′-biphenyl]-4-ylethyl)-3-(cyclopropylmethyl)-1,2,3,4,5,6-hexahydro-6,11-dimethyl-2,6-methano-3-benzazocine-8-carboxamide, reference compound], the Functional description (human κ opioid receptor) was “agonist” and the Emax (human κ opioid receptor) was 76 ± 6.7%.
With `C[C@H]1C2Cc3ccc(C(N)=O)cc3[C@@]1(C)CCN2CC1CC1` [Compound 2, 8-carboxamidocyclazocine, reference compound] the Functional description (human μ opioid receptor) was “functional partial agonists; also recorded: partial agonist”, the “Imax (% maximal inhibition)” value (human μ opioid receptor) was 76 ± 1.1 % maximal inhibition and the Emax (human μ opioid receptor) was 24 ± 1.9%. The Functional description (human κ opioid receptor) was “agonist” and the Emax (human κ opioid receptor) was 87 ± 6.5%.
With `C[C@H]1C2Cc3ccc(C(=O)NCCc4ccc(-c5ccncc5)cc4)cc3[C@@]1(C)CCN2CC1CC1` [Compound 4] the Functional description (human μ opioid receptor) was “partial agonist”, the “Imax (% maximal inhibition)” value (human μ opioid receptor) was 79 ± 3.3 % maximal inhibition and the Emax (human μ opioid receptor) was 33 ± 0.68%. The Functional description (human κ opioid receptor) was “agonist” and the Emax (human κ opioid receptor) was 64 ± 5.1%.
`C[C@H]1C2Cc3ccc(C(=O)NCCc4ccc(-c5cccnc5)cc4)cc3[C@@]1(C)CCN2CC1CC1` [Compound 5] was tested, and the Functional description (human μ opioid receptor) was “partial agonist”, the “Imax (% maximal inhibition)” value (human μ opioid receptor) was 83 ± 2.9 % maximal inhibition and the Emax (human μ opioid receptor) was 28 ± 2.2%. The Functional description (human κ opioid receptor) was “agonist” and the Emax (human κ opioid receptor) was 52 ± 0.55%.
For `C[C@H]1C2Cc3ccc(C(=O)NCCc4ccc(-c5ccccn5)cc4)cc3[C@@]1(C)CCN2CC1CC1` [Compound 6], the Functional description (human μ opioid receptor) was “partial agonist”, the “Imax (% maximal inhibition)” value (human μ opioid receptor) was 87 ± 3.1 % maximal inhibition and the Emax (human μ opioid receptor) was 31 ± 1.8%. For the same compound, the Functional description (human κ opioid receptor) was “agonist” and the Emax (human κ opioid receptor) was 50 ± 2.6%.
In the case of `C[C@H]1C2Cc3ccc(C(=O)NCCc4ccc(-c5ccccc5)nc4)cc3[C@@]1(C)CCN2CC1CC1` [Compound 7], the Functional description (human μ opioid receptor) is reported as “partial agonist”, the “Imax (% maximal inhibition)” value (human μ opioid receptor) is reported as 87 ± 1.2 % maximal inhibition and the Emax (human μ opioid receptor) is reported as 30 ± 2.3%. The Functional description (human κ opioid receptor) was “agonist” and the Emax (human κ opioid receptor) was 52 ± 4.8%.
For `C[C@H]1C2Cc3ccc(C(=O)NCCc4ccc(-c5ccccc5)cn4)cc3[C@@]1(C)CCN2CC1CC1` [Compound 8], the Functional description (human μ opioid receptor) was “partial agonist”, the “Imax (% maximal inhibition)” value (human μ opioid receptor) was 53 ± 5.4 % maximal inhibition and the Emax (human μ opioid receptor) was 25 ± 1.1%. For the same compound, the Functional description (human κ opioid receptor) was “agonist” and the Emax (human κ opioid receptor) was 64 ± 2.4%.

Source: PMC3602279 (Bioorganic & medicinal chemistry letters, 2013)
